Test results as given in EP2818472A1, “Imidazo[4,5-c]pyridine and pyrrolo[3,2-c]pyridine compounds as G-protein-coupled receptor kinase 5 (GRK5) modulators” (Max-Planck-Gesellschaft zur Förderung der Wissenschaften …, priority 2013, dated 2014).

Tested on: beta-TC6 cells
Assay: Insulin HTRF assay (relative activity Ar) in beta-TC6 cells
Assay type: cell-based, mouse
Settings: Mus musculus, Beta-TC6, 4 h, insulin HTRF, supernatant of beta-TC6 cells, incubation with test compound at 37°C for 2, 3, 4h; read-out: Ar (relative activity)
How it was run: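 beta-TC6 cells (15k/well, seeded 24 or 48 h) washed, then exposed to compound in induction buffer (0.5% DMSO final) for 2, 3 or 4 h at 37°C.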

| SMILES | Emax [%] |
| --- | --- |
| CNc1nc2cnc(-c3ccc(O)c(OC)c3)cc2n1-c1cccc(F)c1 [Compound 888, 4-[1-(3-fluorophenyl)-2-(methylamino)imidazo[4,5-c]pyridin-6-yl]-2-methoxy-phenol] | 30 to 50 |
| COc1ccc(-c2nc3c(NC4CCC(O)CC4)nccc3[nH]2)cc1OC (stereo not drawn) [Compound 348, 4-[[2-(3,4-dimethoxyphenyl)-1H-imidazo[4,5-c]pyridin-4-yl]amino]cyclohexanol] | 30 to 50 |
| COc1cccc(Nc2cc3[nH]c(-c4ccc(C(=O)N(C)C)cc4)cc3cn2)c1 [Compound 19, 4-[6-(3-methoxyanilino)-1H-pyrrolo[3,2-c]pyridin-2-yl]-N,N-dimethyl-benzamide] | 50 to 100 |
| CNc1nc2cnc(Nc3ccc(C(=O)N(C)C)cc3)cc2n1-c1ccccc1 [Compound 515, N,N-dimethyl-4-[[2-(methylamino)-1-phenyl-imidazo[4,5-c]pyridin-6-yl]amino]benzamide] | 50 to 100 |
| c1ccc(-c2nc3c(NCCc4ccccn4)nccc3[nH]2)cc1 [Compound 332, 2-phenyl-N-[2-(2-pyridyl)ethyl]-1H-imidazo[4,5-c]pyridin-4-amine] | 30 to 50 |
| Cn1c(NCCN2CCOCC2)nc2cnc(-c3cccc(F)c3)cc21 [Compound 769, 6-(3-fluorophenyl)-1-methyl-N-(2-morpholinoethyl)imidazo[4,5-c]pyridin-2-amine] | 0 to 30 |
| COc1ccccc1-c1cc2c(Nc3cccc(O)c3)nccc2[nH]1 [Compound 297, 3-[[2-(2-methoxyphenyl)-1H-pyrrolo[3,2-c]pyridin-4-yl]amino]phenol] | 30 to 50 |
| COc1ccc(Nc2cc3c(cn2)cc(-c2cccnc2)n3C)cn1 [Compound 86, N-(6-methoxy-3-pyridyl)-1-methyl-2-(3-pyridyl)pyrrolo[3,2-c]pyridin-6-amine] | 50 to 100 |
| Cn1cc(-c2cc3cnc(Nc4cccc(OC(F)(F)F)c4)cc3n2C)cn1 [Compound 146, 1-methyl-2-(1-methylpyrazol-4-yl)-N-[3-(trifluoromethoxy)phenyl]pyrrolo[3,2-c]pyridin-6-amine] | 30 to 50 |
| COc1ccc(CNc2nc3cnc(Nc4cccc(S(C)(=O)=O)c4)cc3n2C)cc1OC [Compound 608, N2-[(3,4-dimethoxyphenyl)methyl]-1-methyl-N6-(3-methylsulfonylphenyl)imidazo[4,5-c]pyridine-2,6-diamine] | 30 to 50 |
| COc1ccc(Nc2cc3[nH]c(-c4cccc(F)c4)cc3cn2)cc1OC [Compound 7, N-(3,4-dimethoxyphenyl)-2-(3-fluorophenyl)-1H-pyrrolo[3,2-c]pyridin-6-amine] | 50 to 100 |
| CNc1nc2cnc(Nc3cccc(O)c3)cc2n1-c1cccc(C(F)(F)F)c1 [Compound 550, 3-[[2-(methylamino)-1-[3-(trifluoromethyl)phenyl]imidazo[4,5-c]pyridin-6-yl]amino]phenol] | 30 to 50 |
| c1ccc(CCNc2nccc3[nH]c(-c4ccncc4)nc23)cc1 [Compound 434, N-phenethyl-2-(4-pyridyl)-1H-imidazo[4,5-c]pyridin-4-amine] | 30 to 50 |
| COc1cc(Nc2cc3[nH]c(-c4ccccn4)cc3cn2)cc(OC)c1OC [Compound 62, 2-(2-pyridyl)-N-(3,4,5-trimethoxyphenyl)-1H-pyrrolo[3,2-c]pyridin-6-amine] | > 100 |
| CNc1nc2cnc(Nc3ccc4c(c3)OCO4)cc2n1Cc1ccco1 [Compound 524, N6-(1,3-benzodioxol-5-yl)-1-(2-furylmethyl)-N2-methyl-imidazo[4,5-c]pyridine-2,6-diamine] | 50 to 100 |
| c1cc2[nH]c(-c3ccsc3)cc2c(Nc2ccc(N3CCOCC3)cc2)n1 [Compound 256, N-(4-morpholinophenyl)-2-(3-thienyl)-1H-pyrrolo[3,2-c]pyridin-4-amine] | 50 to 100 |
| CN(C)C(=O)c1ccc(-c2cc3cnc(Nc4ccccc4)cc3[nH]2)cc1 [Compound 24, 4-(6-anilino-1 H-pyrrolo[3,2-c]pyridin-2-yl)-N,N-dimethyl-benzamide] | 50 to 100 |
| CS(=O)(=O)c1ccc(Nc2nccc3[nH]c(-c4ccccc4)cc23)cc1 [Compound 324, N-(4-methylsulfonylphenyl)-2-phenyl-1H-pyrrolo[3,2-c]pyridin-4-amine] | 50 to 100 |
| CNc1nc2cnc(Nc3cccc(F)c3)cc2n1Cc1ccc(OC)c(OC)c1 [Compound 674, 1-[(3,4-dimethoxyphenyl)methyl]-N6-(3-fluorophenyl)-N2-methyl-imidazo[4,5-c]pyridine-2,6-diamine] | 30 to 50 |
| CN(C)c1cccc(Nc2cc3[nH]c(-c4cn[nH]c4)cc3cn2)c1 [Compound 112, N1,N1-dimethyl-N3-[2-(1H-pyrazol-4-yl)-1H-pyrrolo[3,2-c]pyridin-6-yl]benzene-1,3-diamine] | 50 to 100 |
| COCCNc1nccc2[nH]c(-c3cccc(C(F)(F)F)c3)nc12 [Compound 355, N-(2-methoxyethyl)-2-[3-(trifluoromethyl)phenyl]-1H-imidazo[4,5-c]pyridin-4-amine] | 30 to 50 |

| SMILES | Emax [%] |
| --- | --- |
| COc1ccc(Nc2nccc3c2cc(-c2ccsc2)n3C)cc1OC [Compound 274, N-(3,4-dimethoxyphenyl)-1-methyl-2-(3-thienyl)pyrrolo[3,2-c]pyridin-4-amine] | 30 to 50 |
| CNc1nc2cnc(Nc3cccc(C(C)=O)c3)cc2n1Cc1ccc(OC)c(OC)c1 [Compound 673, 1-[3-[[1-[(3,4-dimethoxyphenyl)methyl]-2-(methylamino)imidazo[4,5-c]pyridin-6-yl]amino]phenyl]ethanone] | 50 to 100 |
| CNc1nc2cnc(Nc3ccc(OC)cc3)cc2n1-c1cccc(F)c1 [Compound 685, 1-(3-fluorophenyl)-N6-(4-methoxyphenyl)-N2-methyl-imidazo[4,5-c]pyridine-2,6-diamine] | 50 to 100 |
| CNc1nc2cnc(Nc3ccc(OC)cc3OC)cc2n1CC1CC1 [Compound 569, 1-(cyclopropylmethyl)-N6-(2,4-dimethoxyphenyl)-N2-methyl-imidazo[4,5-c]pyridine-2,6-diamine] | 30 to 50 |
| CS(=O)(=O)Nc1cccc(Nc2nccc3[nH]c(-c4ccsc4)cc23)c1 [Compound 265, N-[3-[[2-(3-thienyl)-1H-pyrrolo[3,2-c]pyridin-4-yl]amino]phenyl]methanesulfonamide] | 50 to 100 |
| COc1ccccc1-c1cc2c(Nc3cccnc3)nccc2n1C [Compound 303, 2-(2-methoxyphenyl)-1-methyl-N-(3-pyridyl)pyrrolo[3,2-c]pyridin-4-amine] | 30 to 50 |
| COc1cc(Nc2nccc3[nH]c(-c4cccc(C)c4)nc23)cc(OC)c1OC [Compound 435, 2-(m-tolyl)-N-(3,4,5-trimethoxyphenyl)-1H-imidazo[4,5-c]pyridin-4-amine] | 50 to 100 |
| Oc1ccc(-c2nc3c(Nc4ccccc4)nccc3[nH]2)cc1 [Compound 365, 4-(4-anilino-1H-imidazo[4,5-c]pyridin-2-yl)phenol] | 30 to 50 |
| Cn1c(Nc2ccccc2)nc2cnc(Nc3cccnc3)cc21 [Compound 633, 1-methyl-N2-phenyl-N6-(3-pyridyl)imidazo[4,5-c]pyridine-2,6-diamine] | 50 to 100 |
| Cn1c(Nc2cccc(C(F)(F)F)c2)nc2cnc(-c3ccc(N)nc3)cc21 [Compound 590, 6-(6-amino-3-pyridyl)-1-methyl-N-[3-(trifluoromethyl)phenyl]imidazo[4,5-c]pyridin-2-amine] | 50 to 100 |
| COc1cc(Nc2cc3c(cn2)nc(Cc2cccnc2)n3C)cc(OC)c1OC [Compound 729, 1-methyl-2-(3-pyridylmethyl)-N-(3,4,5-trimethoxyphenyl)imidazo[4,5-c]pyridin-6-amine] | 30 to 50 |
| COc1cc(OC)cc(-c2cc3c(Nc4cccc(NS(C)(=O)=O)c4)nccc3[nH]2)c1 [Compound 292, N-[3-[[2-(3,5-dimethoxyphenyl)-1H-pyrrolo[3,2-c]pyridin-4-yl]amino]phenyl]methanesulfonamide] | 30 to 50 |
| Cn1c(NCc2ccccc2)nc2cnc(-c3cncnc3)cc21 [Compound 623, N-benzyl-1-methyl-6-pyrimidin-5-yl-imidazo[4,5-c]pyridin-2-amine] | 30 to 50 |
| Cc1cccc(CNc2nc3cnc(Nc4ccc5c(c4)OCCO5)cc3n2C)c1 [Compound 577, N6-(2,3-dihydro-1,4-benzodioxin-6-yl)-1-methyl-N2-(m-tolylmethyl)imidazo[4,5-c]pyridine-2,6-diamine] | 50 to 100 |
| c1ccc(Nc2nccc3[nH]c(-c4ccc5c(c4)OCCO5)nc23)cc1 [Compound 412, 2-(2,3-dihydro-1,4-benzodioxin-6-yl)-N-phenyl-1H-imidazo[4,5-c]pyridin-4-amine] | 30 to 50 |
| CNc1nc2cnc(Nc3cccc(NC(C)=O)c3)cc2n1-c1cccc(F)c1 [Compound 688, N-[3-[[1-(3-fluorophenyl)-2-(methylamino)imidazo[4,5-c]pyridin-6-yl]amino]phenyl]acetamide] | 50 to 100 |
| COCCNc1nc2cnc(-c3ccc4c(c3)OCO4)cc2n1C [Compound 759, 6-(1,3-benzodioxol-5-yl)-N-(2-methoxyethyl)-1-methyl-imidazo[4,5-c]pyridin-2-amine] | 0 to 30 |
| COc1ccc(-c2nc3c(Nc4cccc(S(C)(=O)=O)c4)nccc3[nH]2)cc1OC [Compound 351, 2-(3,4-dimethoxyphenyl)-N-(3-methylsulfonylphenyl)-1H-imidazo[4,5-c]pyridin-4-amine] | 50 to 100 |
| COc1ccc(-c2nc3cnc(Nc4ccc5c(c4)OCO5)cc3n2C)cc1OC [Compound 722, N-(1,3-benzodioxol-5-yl)-2-(3,4-dimethoxyphenyl)-1-methyl-imidazo[4,5-c]pyridin-6-amine] | 30 to 50 |
| CC(=O)Nc1cccc(Nc2cc3c(cn2)cc(-c2cnn(C)c2)n3C)c1 [Compound 149, N-[3-[[1-methyl-2-(1-methylpyrazol-4-yl)pyrrolo[3,2-c]pyridin-6-yl]amino]phenyl]acetamide] | > 100 |
| Cn1c(-c2ccsc2)cc2c(Nc3ccccn3)nccc21 [Compound 280, 1-methyl-N-(2-pyridyl)-2-(3-thienyl)pyrrolo[3,2-c]pyridin-4-amine] | 30 to 50 |
